Patent publication US12403143B2, “Pharmaceutical composition for treating functional psychiatric disorders” (OBSCHESTVO S OGRANICHENNOI OTVETSTVENNOSTYU “VALENTEK”, priority 2016, dated 2025)
Where two headings read alike, the source gives them in different places.

Tests used:
rats = test: Sub-chronic toxicity, blood composition / neutrophil kinetics; assay type: in vivo; conditions: intragastric 5 mg/kg daily for 28 days
Method: The neutrophil kinetics were studied within comparative tests of sub-chronic toxicity. Studies were conducted in rats upon intragastric administration of substances at a dose of 5 mg/kg. The test substances were administered daily for 28 days. Each experimental group composed of 10 animals of each sex.

miniature pigs = test: Maximum tolerated dose by dose escalation; assay type: in vivo; conditions: extrapolated from miniature pigs
Method: (§1) To assess the safety of halogen derivatives of clozapine, the maximum tolerated dose (MTD) for miniature pigs was determined.
(§2) Initially, the pharmaceutical composition was administered at a dose of 0.53 mg/kg for 7 days. Then, on the 8th day, the administered dose of the pharmaceutical composition was increased to 1 mg/kg. After that, the dose was increased by 0.5 mg/kg every 1st, 3rd and 5th days of the seven-day cycle until an observable intoxication was noted.

[1] = Maximum tolerated dose by dose escalation; assay type: in vivo, miniature pigs; conditions: pig, in vivo, miniature pigs, dose escalation
Method: as §1, §2

mice = test: Amphetamine-induced locomotion inhibition (ALI), model of bipolar disorder; assay type: in vivo
From the text: The ability of drugs to inhibit amphetamine-induced locomotor activity (amphetamine-induced locomotion inhibition, ALI) is a consequence of their blocking effect on dopamine receptors. Amphetamine causes a disruption of the reuptake of monoamine neurotransmitters and their accumulation in the intersynaptic space; blockade of dopamine receptors by antagonists neutralizes the excessive stimulation of dopamine signaling pathways. ALI is the basic test based on the dopamine model of bipolar disorder, and allows to evaluate the ability of drug candidates to bind to brain dopamine receptors in vivo.
[…]. After that, 3 mg/kg of d-amphetamine were administered intraperitoneally to the animals and the record of the activity was resumed. The distance (in cm) travelled by the animal in the first 60 minutes after administration of antipsychotic drugs and the distance travelled in the next hour after d-amphetamine administration were estimated.

H1 receptor = H1 receptor (Homo sapiens, UniProt P35367); test: H1 receptor functional activity, Fluo-4 NW Ca2+ fluorescence
Method: The functional activity against H1 receptor was determined according to the fluorescence of Fluo-4 NW indicator introduced into cells, induced by a change in Ca^2+ ion concentration in the cytosol.

[2] = Metabolism and tissue distribution of fluoroclozapine after single oral administration; conditions: rats, single oral 10 mg/kg fluoroclozapine
M1 receptor = biological target: T1, M1 receptor (Homo sapiens, UniProt P11229); test: M1 muscarinic receptor activation, Fluo-4 NW Ca2+ fluorescence; assay type: cell-based; conditions: FIG. 6
T1 sequence (P11229 1-460): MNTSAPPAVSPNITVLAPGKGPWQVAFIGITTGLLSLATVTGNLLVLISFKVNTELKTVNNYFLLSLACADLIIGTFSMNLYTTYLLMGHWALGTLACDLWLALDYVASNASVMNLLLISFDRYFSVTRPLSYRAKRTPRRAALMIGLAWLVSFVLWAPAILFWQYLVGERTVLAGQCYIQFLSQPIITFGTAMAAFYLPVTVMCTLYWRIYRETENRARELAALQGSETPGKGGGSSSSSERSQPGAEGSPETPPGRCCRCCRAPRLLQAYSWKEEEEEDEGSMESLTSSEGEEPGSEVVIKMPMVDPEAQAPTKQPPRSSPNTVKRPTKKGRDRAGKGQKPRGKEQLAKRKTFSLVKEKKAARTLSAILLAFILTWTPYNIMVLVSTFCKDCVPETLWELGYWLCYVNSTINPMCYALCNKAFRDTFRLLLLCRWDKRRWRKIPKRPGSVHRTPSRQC
Method: The activity was determined according to the fluorescence of Fluo-4 NW indicator introduced into cells, induced by a change in Ca^2+ ion concentration in the cytosol.

D4.4 receptor = biological target: T2, D4.4 receptor (Homo sapiens, UniProt P21917); test: D4 receptor functional antagonism, cAMP level by fluorescence; assay type: cell-based; conditions: ratio of binding constants
T2 sequence (P21917 1-419): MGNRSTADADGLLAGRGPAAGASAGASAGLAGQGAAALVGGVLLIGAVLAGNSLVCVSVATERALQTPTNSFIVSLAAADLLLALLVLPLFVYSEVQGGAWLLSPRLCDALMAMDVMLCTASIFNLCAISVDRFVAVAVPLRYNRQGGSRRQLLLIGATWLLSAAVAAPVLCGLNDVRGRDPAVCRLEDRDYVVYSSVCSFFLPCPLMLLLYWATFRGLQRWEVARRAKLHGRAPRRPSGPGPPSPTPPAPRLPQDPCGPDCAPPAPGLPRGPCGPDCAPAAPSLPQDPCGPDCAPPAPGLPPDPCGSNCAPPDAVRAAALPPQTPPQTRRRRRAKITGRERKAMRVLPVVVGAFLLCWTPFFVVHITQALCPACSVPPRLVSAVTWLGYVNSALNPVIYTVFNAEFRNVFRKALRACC
Method: (§3) Response for cells expressing D2 receptors was determined as the change in cell conductance caused by the redistribution of intracellular calcium. For D4 receptor, the response criterion was the level of the secondary messenger, cAMP, determined by fluorescence after lysis of the cell expressing the receptor.

[3] = Leucht et al., Lancet 2013; cited from earlier work
CF-1 mice = test: Sedation: total distance travelled after oral administration; assay type: in vivo
From the text: The results of the in vitro experiments given in Example 4 have been confirmed by the studies of sedation.

muscarinic M4 receptor = biological target: T3, muscarinic M4 receptor (Homo sapiens, UniProt P08173); test: M4 muscarinic receptor functional experiments, cAMP level; assay type: cell-based
T3 sequence (P08173 1-479): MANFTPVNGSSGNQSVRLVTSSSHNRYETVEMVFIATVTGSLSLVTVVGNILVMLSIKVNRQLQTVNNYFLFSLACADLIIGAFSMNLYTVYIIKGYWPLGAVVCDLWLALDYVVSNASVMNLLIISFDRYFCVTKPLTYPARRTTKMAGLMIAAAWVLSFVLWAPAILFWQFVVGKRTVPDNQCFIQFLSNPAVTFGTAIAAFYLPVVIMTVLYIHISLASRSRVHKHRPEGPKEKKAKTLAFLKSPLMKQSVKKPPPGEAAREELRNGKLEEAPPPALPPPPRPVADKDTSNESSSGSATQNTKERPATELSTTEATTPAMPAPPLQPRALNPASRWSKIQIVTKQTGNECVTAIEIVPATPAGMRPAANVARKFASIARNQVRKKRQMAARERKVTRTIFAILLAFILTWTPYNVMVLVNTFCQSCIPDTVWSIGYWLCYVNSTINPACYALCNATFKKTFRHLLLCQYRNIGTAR
Method: The side effect of M4 muscarinic receptor agonists is intense salivation (sialorrhea). […] Curves of response dependence on the concentration of the compound for the receptor were built; the response criterion was the level of the secondary messenger—cAMP, which is determined by fluorescence after cell lysis expressing the receptor.

5HT2A receptor = 5HT2A receptor (Homo sapiens, UniProt P28223); test: 5HT2A receptor functional antagonism, cAMP level by fluorescence; assay type: cell-based
Method: as §3, with “determined by” for “determined as”, “For 5HT2A” for “For D4”

[4] = female, read-out: MTD (females)

Chain of H1 receptor (P35367 whole entry): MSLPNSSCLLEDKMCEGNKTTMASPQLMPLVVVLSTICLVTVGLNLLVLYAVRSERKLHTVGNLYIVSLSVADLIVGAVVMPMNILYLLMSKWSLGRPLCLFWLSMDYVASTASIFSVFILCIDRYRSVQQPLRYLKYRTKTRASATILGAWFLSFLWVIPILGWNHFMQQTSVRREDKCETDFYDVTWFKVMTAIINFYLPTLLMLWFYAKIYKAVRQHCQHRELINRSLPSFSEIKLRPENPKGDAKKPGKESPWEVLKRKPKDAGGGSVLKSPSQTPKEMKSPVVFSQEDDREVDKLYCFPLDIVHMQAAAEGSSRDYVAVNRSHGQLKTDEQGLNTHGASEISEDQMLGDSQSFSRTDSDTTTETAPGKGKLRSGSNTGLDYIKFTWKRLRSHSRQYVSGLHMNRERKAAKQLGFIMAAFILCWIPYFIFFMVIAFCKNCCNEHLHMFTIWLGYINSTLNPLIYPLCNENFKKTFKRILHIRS
Chain of 5HT2A receptor (P28223 whole entry): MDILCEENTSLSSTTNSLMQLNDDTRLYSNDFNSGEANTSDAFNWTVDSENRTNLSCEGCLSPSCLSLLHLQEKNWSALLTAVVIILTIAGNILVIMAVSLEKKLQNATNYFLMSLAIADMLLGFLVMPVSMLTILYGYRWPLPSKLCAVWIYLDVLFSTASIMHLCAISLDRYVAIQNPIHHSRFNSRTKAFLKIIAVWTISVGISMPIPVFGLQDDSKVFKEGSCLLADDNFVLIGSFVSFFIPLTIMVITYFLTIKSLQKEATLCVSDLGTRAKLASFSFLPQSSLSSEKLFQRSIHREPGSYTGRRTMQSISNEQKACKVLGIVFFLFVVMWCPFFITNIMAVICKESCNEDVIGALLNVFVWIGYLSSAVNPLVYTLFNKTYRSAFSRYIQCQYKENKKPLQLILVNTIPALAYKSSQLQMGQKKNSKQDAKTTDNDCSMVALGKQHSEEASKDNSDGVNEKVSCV

SMILES | Stab neutrophils (rats) | corresponding MTD for a human (miniature pigs) | MTD [1, 4] | MTD ([1]; male, read-out: MTD (males)) | Therapeutic window width (Kb, H1/Kb, 5HT2A) (H1 receptor) | effect on M1 receptors (M1 receptor) | increase of the risk of sedation [3] | further results
CN1CCN(C2=Nc3cc(Cl)c(F)cc3Nc3ccccc32)CC1 [Fluoroclozapine, 11-(4-methylpiperazine-1-yl)-7-fluoro-8-chloro-5H-dibenzo[b,e][1,4] diazepine] | 3.2 ± 0.4% | 450 mg per day | 6 mg/kg | 5 mg/kg | 0.63 | virtually no effect on M1 receptors | – | minimum effective dose designed for patient (mice; depending on patient's body weight): 20-35 mg per day; minimum effective dose designed for patient (mice; extrapolated from ALI experiment): 0.5 mg/kg; concentrations for inhibition of H1 compared with inhibition of 5HT2A (times lower) (H1 receptor): approximately equal concentrations; concentrations of fluoroclozapine and its metabolite desmethylfluoroclozapine in the brain [2]: comparable; metabolism [2]: metabolized to desmethylfluoroclozapine
OCCOCCN1CCN(C2=Nc3ccccc3Sc3ccccc32)CC1 [quetiapine] | – | – | – | – | – | – | 3.7 times | Therapeutic window width (Kb, D2/Kb, D4) (D4.4 receptor): 0.11
CN1CCN(C2=Nc3cc(Cl)ccc3Nc3ccccc32)CC1 [Clozapine, clozapine, reference compound] | 4.6 ± 0.7 % | 270 mg per day | 4.5 mg/kg | 3 mg/kg | – | – | 8.8 times | number of circulating neutrophils in the blood versus control group (rats): significant increase; total distance travelled / sedation (CF-1 mice; mouse, in vivo): significantly reduced
Clc1ccc2c(c1)N=C(N1CCNCC1)c1ccccc1N2 [Desmethylclozapine, desmethylclozapine, reference compound] | – | – | – | – | 0.24 | – | – | –
Fc1cc2c(cc1Cl)N=C(N1CCNCC1)c1ccccc1N2 [Desmethylfluoroclozapine, 11-(piperazine-1-yl)-7-fluoro-8-chloro-5H-dibenzo[b,e][1,4]diazepine] | 4.2 ± 0.4% | – | – | – | – | is an agonist, and causes a significant response in the therapeutic drug concentration window | – | activating concentration, times higher than that of clozapine (muscarinic M4 receptor): 290 times; activating concentration, times higher than that of desmethylclozapine (muscarinic M4 receptor): 30 times; Kb (5HT2A receptor; binding constant determined from IC50, antagonism setup): 0.016 µM; Therapeutic window width (Kb, D2/Kb, 5HT2A) (5HT2A receptor; ratio of binding constants): 34; Therapeutic window width (Kb, H1/Kb, 5HT2A) (H1 receptor; ratio of binding constants): 0.93; motion activity (CF-1 mice; CF-1 mice, oral 10 mg/kg): insignificant decrease in motion activity
